Data from BigSolDB 2.1.

Clc1ccccc1C(c1ccccc1)(c1ccccc1)n1ccnc1
Details | solubility (mole fraction)
in ethyl acetate, 283.11 K | 0.00714
in ethyl acetate, 288.17 K | 0.00838
in ethyl acetate, 293.24 K | 0.01
in ethyl acetate, 298.15 K | 0.0119
in ethyl acetate, 303.14 K | 0.0142
in ethyl acetate, 308.18 K | 0.0168
in ethyl acetate, 313.12 K | 0.0198
in ethyl acetate, 318.16 K | 0.0233
in ethyl acetate, 323.19 K | 0.0275
in isobutanol, 283.09 K | 0.0157
in isobutanol, 288.15 K | 0.0202
in isobutanol, 293.11 K | 0.0251
in isobutanol, 298.17 K | 0.0311
in isobutanol, 303.16 K | 0.0385
in isobutanol, 308.21 K | 0.0477
in isobutanol, 313.15 K | 0.0589
in isobutanol, 318.14 K | 0.0722
in isobutanol, 323.18 K | 0.0873
in isopentanol, 283.13 K | 0.0157
in isopentanol, 288.18 K | 0.0193
in isopentanol, 293.14 K | 0.0239
in isopentanol, 298.16 K | 0.0296
in isopentanol, 303.13 K | 0.0366
in isopentanol, 308.18 K | 0.045
in isopentanol, 313.12 K | 0.0548
in isopentanol, 318.15 K | 0.0668
in isopentanol, 323.19 K | 0.081
in isopropanol, 283.1 K | 0.00571
in isopropanol, 288.15 K | 0.00723
in isopropanol, 293.13 K | 0.00916
in isopropanol, 298.16 K | 0.0115
in isopropanol, 303.12 K | 0.0145
in isopropanol, 308.15 K | 0.0185
in isopropanol, 313.19 K | 0.0235
in isopropanol, 318.16 K | 0.03
in isopropanol, 323.15 K | 0.0384
in isopropyl acetate, 283.1 K | 0.00518
in isopropyl acetate, 288.16 K | 0.00615
in isopropyl acetate, 293.2 K | 0.0073
in isopropyl acetate, 298.19 K | 0.00868
in isopropyl acetate, 303.15 K | 0.0102
in isopropyl acetate, 308.12 K | 0.0121
in isopropyl acetate, 313.15 K | 0.0144
in isopropyl acetate, 318.19 K | 0.0171
in isopropyl acetate, 323.17 K | 0.0203
in methyl acetate, 283.15 K | 0.00661
in methyl acetate, 288.17 K | 0.00792
in methyl acetate, 293.1 K | 0.00953
in methyl acetate, 298.21 K | 0.0114
in methyl acetate, 303.15 K | 0.0137
in methyl acetate, 308.16 K | 0.0164
in methyl acetate, 313.12 K | 0.0196
in methyl acetate, 318.14 K | 0.0235
in methyl acetate, 323.18 K | 0.0281
in methyl propionate, 283.13 K | 0.00984
in methyl propionate, 288.17 K | 0.0117
in methyl propionate, 293.21 K | 0.0138
in methyl propionate, 298.15 K | 0.0163
in methyl propionate, 303.14 K | 0.0192
in methyl propionate, 308.17 K | 0.0227
in methyl propionate, 313.08 K | 0.0268
in methyl propionate, 318.19 K | 0.0316
in methyl propionate, 323.15 K | 0.0373
in n-butanol, 283.16 K | 0.0151
in n-butanol, 288.11 K | 0.0188
in n-butanol, 293.15 K | 0.0235
in n-butanol, 298.2 K | 0.0289
in n-butanol, 303.14 K | 0.0356
in n-butanol, 308.18 K | 0.0439
in n-butanol, 313.15 K | 0.0538
in n-butanol, 318.17 K | 0.0659
in n-butanol, 323.16 K | 0.0798
in n-butyl acetate, 283.16 K | 0.00743
in n-butyl acetate, 288.19 K | 0.00886
in n-butyl acetate, 293.14 K | 0.0104
in n-butyl acetate, 298.16 K | 0.0124
in n-butyl acetate, 303.11 K | 0.0148
in n-butyl acetate, 308.09 K | 0.0176
in n-butyl acetate, 313.25 K | 0.0211
in n-butyl acetate, 318.15 K | 0.0251
in n-butyl acetate, 323.13 K | 0.0299
in n-heptanol, 283.17 K | 0.0108
in n-heptanol, 288.14 K | 0.0151
in n-heptanol, 293.18 K | 0.0198
in n-heptanol, 298.16 K | 0.0251
in n-heptanol, 303.1 K | 0.0316
in n-heptanol, 308.15 K | 0.039
in n-heptanol, 313.19 K | 0.0474
in n-heptanol, 318.08 K | 0.0578
in n-heptanol, 323.16 K | 0.0695
in n-hexanol, 283.08 K | 0.0145
in n-hexanol, 288.13 K | 0.0185
in n-hexanol, 293.16 K | 0.0231
in n-hexanol, 298.15 K | 0.0287
in n-hexanol, 303.19 K | 0.0356
in n-hexanol, 308.14 K | 0.0432
in n-hexanol, 313.1 K | 0.053
in n-hexanol, 318.21 K | 0.064
in n-hexanol, 323.17 K | 0.0769
in n-octanol, 283.06 K | 0.0118
in n-octanol, 288.15 K | 0.0159
in n-octanol, 293.13 K | 0.0203
in n-octanol, 298.19 K | 0.0247
in n-octanol, 303.11 K | 0.0301
in n-octanol, 308.22 K | 0.0366
in n-octanol, 313.18 K | 0.0453
in n-octanol, 318.09 K | 0.0553
in n-octanol, 323.17 K | 0.0661
in n-pentanol, 283.19 K | 0.0169
in n-pentanol, 288.15 K | 0.0213
in n-pentanol, 293.13 K | 0.0269
in n-pentanol, 298.1 K | 0.0325
in n-pentanol, 303.12 K | 0.04
in n-pentanol, 308.15 K | 0.0486
in n-pentanol, 313.07 K | 0.0587
in n-pentanol, 318.14 K | 0.0707
in n-pentanol, 323.17 K | 0.085
in n-propanol, 283.15 K | 0.0144
in n-propanol, 288.12 K | 0.0172
in n-propanol, 293.14 K | 0.0213
in n-propanol, 298.18 K | 0.0263
in n-propanol, 303.16 K | 0.0327
in n-propanol, 308.15 K | 0.0405
in n-propanol, 313.11 K | 0.05
in n-propanol, 318.17 K | 0.0618
in n-propanol, 323.18 K | 0.0761
in n-propyl acetate, 283.15 K | 0.008
in n-propyl acetate, 288.14 K | 0.0095
in n-propyl acetate, 293.19 K | 0.0112
in n-propyl acetate, 298.17 K | 0.0132
in n-propyl acetate, 303.16 K | 0.0156
in n-propyl acetate, 308.12 K | 0.0185
in n-propyl acetate, 313.21 K | 0.0217
in n-propyl acetate, 318.15 K | 0.0257
in n-propyl acetate, 323.13 K | 0.0303
in sec-butanol, 283.15 K | 0.0101
in sec-butanol, 288.16 K | 0.013
in sec-butanol, 293.21 K | 0.0165
in sec-butanol, 298.18 K | 0.021
in sec-butanol, 303.13 K | 0.0267
in sec-butanol, 308.15 K | 0.0338
in sec-butanol, 313.19 K | 0.0425
in sec-butanol, 318.11 K | 0.0532
in sec-butanol, 323.14 K | 0.0657
